Measurements published in ChEMBL document CHEMBL1201862, “PubChem BioAssay data set” (2004).
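Exposure lasted 48 hours, with cells grown in 96-well plates and compounds tested at five concentrations. GI50 = concentration required for 50% inhibition of growth.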 The source made the active and inactive calls. No stated cut-off is given here; in the data, active = GI50 up to about 1.1 µM and inactive = higher.

What was measured:
Assay in all cases: DTP human tumour cell line panel, 48 h
OVCAR-3 = tested on: OVCAR-3
SR = tested on: SR
M14 = tested on: M14
MDA-MB-435 = tested on: MDA-MB-435
SN12C = tested on: SN12C
HCT-15 = tested on: HCT-15
ACHN = tested on: ACHN
NCI-H522 = tested on: NCI-H522
SW-620 = tested on: SW-620
MCF7 = tested on: MCF7
DU-145 = tested on: DU-145
TK-10 = tested on: TK-10
MOLT-4 = tested on: MOLT-4
UACC-62 = tested on: UACC-62
NCI/ADR-RES = tested on: NCI/ADR-RES
MDA-MB-231 = tested on: MDA-MB-231
EKVX = tested on: EKVX
HL-60 = tested on: HL-60
CCRF-CEM = tested on: CCRF-CEM
LOX IMVI = tested on: LOX IMVI
HT-29 = tested on: HT-29
U-251 = tested on: U-251
T47D = tested on: T47D
K562 = tested on: K562
SF-295 = tested on: SF-295
HCT-116 = tested on: HCT-116
IGROV-1 = tested on: IGROV-1
Hs-578T = tested on: Hs-578T
OVCAR-4 = tested on: OVCAR-4
Malme-3M = tested on: Malme-3M
SNB-75 = tested on: SNB-75
HOP-62 = tested on: HOP-62
SF-539 = tested on: SF-539
RXF 393 = tested on: RXF 393
RPMI-8226 = tested on: RPMI-8226
BT-549 = tested on: BT-549
A498 = tested on: A498
NCI-H460 = tested on: NCI-H460
KM12 = tested on: KM12
SK-MEL-5 = tested on: SK-MEL-5
CAKI-1 = tested on: CAKI-1
SF-268 = tested on: SF-268
UACC-257 = tested on: UACC-257
PC-3 = tested on: PC-3
UO-31 = tested on: UO-31
MDA-N = tested on: MDA-N
COLO 205 = tested on: COLO 205
SK-MEL-28 = tested on: SK-MEL-28
OVCAR-8 = tested on: OVCAR-8
OVCAR-5 = tested on: OVCAR-5
SNB-19 = tested on: SNB-19
HOP-92 = tested on: HOP-92
NCI-H226 = tested on: NCI-H226
NCI-H23 = tested on: NCI-H23
SK-MEL-2 = tested on: SK-MEL-2
HCC 2998 = tested on: HCC 2998
A549 = tested on: A549
SK-OV-3 = tested on: SK-OV-3
786-0 = tested on: 786-0

CN(C)c1ccc(C=c2c3ccccc3n3c2c2ccccc2[n+]3C)cc1
GI50 (OVCAR-3): 0.239 µM (active) | GI50 (SR): 0.199 µM (active) | GI50 (M14): 0.493 µM (active) | GI50 (MDA-MB-435): 0.428 µM (active) | GI50 (SN12C): 0.518 µM (active) | GI50 (HCT-15): 0.456 µM | GI50 (ACHN): 0.867 µM (active) | GI50 (NCI-H522): 0.174 µM (active) | GI50 (SW-620): 0.164 µM (active) | GI50 (MCF7): 0.822 µM (active) | GI50 (DU-145): 1.3 µM (inactive) | GI50 (TK-10): 1.2 µM (inactive) | GI50 (MOLT-4): 0.493 µM (active) | GI50 (UACC-62): 305 nM (active) | GI50 (NCI/ADR-RES): 3.93 µM (inactive) | GI50 (MDA-MB-231): 0.877 µM (active) | GI50 (EKVX): 2.65 µM (inactive) | GI50 (HL-60): 0.051 µM (active) | GI50 (CCRF-CEM): 150 nM (active) | GI50 (LOX IMVI): 0.597 µM (active) | GI50 (HT-29): 0.689 µM (active) | GI50 (U-251): 0.196 µM (active) | GI50 (T47D): 0.248 µM (active) | GI50 (K562): 0.134 µM (active) | GI50 (SF-295): 1.52 µM (inactive) | GI50 (HCT-116): 0.354 µM (active) | GI50 (IGROV-1): 0.82 µM (active) | GI50 (Hs-578T): 0.635 µM (active) | GI50 (OVCAR-4): 1.18 µM (inactive) | GI50 (Malme-3M): 0.392 µM (active) | GI50 (SNB-75): 2.17 µM (inactive) | GI50 (HOP-62): 0.942 µM (active) | GI50 (SF-539): 0.513 µM (active) | GI50 (RXF 393): 1.52 µM (inactive) | GI50 (RPMI-8226): 0.138 µM (active) | GI50 (BT-549): 0.274 µM (active) | GI50 (A498): 1.69 µM (inactive) | GI50 (NCI-H460): 2.84 µM (inactive) | GI50 (KM12): 1.01 µM (active) | GI50 (SK-MEL-5): 0.112 µM (active) | GI50 (CAKI-1): 1.08 µM (active) | GI50 (SF-268): 0.425 µM (active) | GI50 (UACC-257): 0.33 µM (active) | GI50 (PC-3): 0.353 µM (active) | GI50 (UO-31): 0.836 µM (active) | GI50 (MDA-N): 0.526 µM (active) | GI50 (COLO 205): 0.0682 µM (active) | GI50 (SK-MEL-28): 0.521 µM (active) | GI50 (OVCAR-8): 0.364 µM (active) | GI50 (OVCAR-5): 3.02 µM (inactive) | GI50 (SNB-19): 1.25 µM (inactive) | GI50 (HOP-92): 0.421 µM (active) | GI50 (NCI-H226): 3.08 µM (inactive) | GI50 (NCI-H23): 1.01 µM (active) | GI50 (SK-MEL-2): 258 nM (active) | GI50 (HCC 2998): 0.671 µM (active) | GI50 (A549): 3.73 µM (inactive) | GI50 (SK-OV-3): 2.64 µM (inactive) | GI50 (786-0): 0.301 µM (active)

CO[C@@H]1C[C@H]2[C@@H]3CC[C@H]([C@H](C)CO)[C@@]3(C)CC[C@@H]2[C@@]2(C)CC[C@H]3C[C@]312
GI50 (OVCAR-3): > 100 µM (inactive) | GI50 (SR): 37.5 µM (inactive) | GI50 (M14): 32.4 µM (inactive) | GI50 (MDA-MB-435): 37.8 µM (inactive) | GI50 (SN12C): 53.7 µM (inactive) | GI50 (HCT-15): 34 µM | GI50 (ACHN): 33.2 µM (inactive) | GI50 (NCI-H522): 56 µM (inactive) | GI50 (SW-620): 70.3 µM (inactive) | GI50 (MCF7): 19.2 µM (inactive) | GI50 (DU-145): > 100 µM (inactive) | GI50 (TK-10): > 100 µM (inactive) | GI50 (MOLT-4): 32.5 µM (inactive) | GI50 (NCI/ADR-RES): 34.3 µM (inactive) | GI50 (MDA-MB-231): 31.6 µM (inactive) | GI50 (EKVX): 12.5 µM (inactive) | GI50 (HL-60): 20.7 µM (inactive) | GI50 (LOX IMVI): 18.8 µM (inactive) | GI50 (HT-29): 20.7 µM (inactive) | GI50 (U-251): 27.6 µM (inactive) | GI50 (T47D): 24.8 µM (inactive) | GI50 (K562): 26 µM (inactive) | GI50 (SF-295): 28.5 µM (inactive) | GI50 (HCT-116): 30.2 µM (inactive) | GI50 (IGROV-1): 84.7 µM (inactive) | GI50 (Hs-578T): 43.4 µM (inactive) | GI50 (OVCAR-4): 55.8 µM (inactive) | GI50 (Malme-3M): > 100 µM (inactive) | GI50 (SNB-75): 89.9 µM (inactive) | GI50 (HOP-62): > 100 µM (inactive) | GI50 (SF-539): 45.7 µM (inactive) | GI50 (RXF 393): 26.2 µM (inactive) | GI50 (RPMI-8226): 18.3 µM (inactive) | GI50 (BT-549): 13.3 µM (inactive) | GI50 (A498): 80.4 µM (inactive) | GI50 (NCI-H460): 26.7 µM (inactive) | GI50 (KM12): 15.9 µM (inactive) | GI50 (SK-MEL-5): 30.4 µM (inactive) | GI50 (CAKI-1): 5.08 µM (inactive) | GI50 (SF-268): 35.7 µM (inactive) | GI50 (UACC-257): 35.6 µM (inactive) | GI50 (PC-3): 27.6 µM (inactive) | GI50 (UO-31): 53.1 µM (inactive) | GI50 (MDA-N): 39.8 µM (inactive) | GI50 (COLO 205): 20.1 µM (inactive) | GI50 (SK-MEL-28): 46.9 µM (inactive) | GI50 (OVCAR-8): 49 µM (inactive) | GI50 (OVCAR-5): > 100 µM (inactive) | GI50 (SNB-19): 67.6 µM (inactive) | GI50 (HOP-92): 21 µM (inactive) | GI50 (NCI-H226): 28.1 µM (inactive) | GI50 (NCI-H23): 55.7 µM (inactive) | GI50 (HCC 2998): 36.1 µM (inactive) | GI50 (A549): 69 µM (inactive) | GI50 (786-0): 62.5 µM (inactive)
